For one test, the target named is T1, CyclinE1/CDK2 (Homo sapiens, UniProt P24864).
T1 construct: purchased Eurofins, discovery 14-475
Put plainly: Fluorescence Polarization (FP) competitive binding assay, Cyclin E1/Cdk2.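 Note: readings taken after two-hour equilibration at room temperature in HEPES buffer with NaCl, DTT, NP-40 and BSA, IC50 fitted from eight-concentration serial dilution series.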 The note with it: 10 nM Cyclin E1/Cdk2, 2 nM FAM probe; average of 2-3 independent experiments; read-out: Cyclin E FP IC50.

The next test concerns the target T2, CyclinB1/CDK1 (Homo sapiens, UniProt P14635).
T2 construct: purchased Eurofins, discovery 14-450
In words: Fluorescence Polarization (FP) competitive binding assay, Cyclin B1/Cdk1.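 Note: fluorescence polarization read after equilibration at room temperature, with IC50 taken from serially diluted dose-response curves.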 The settings on record: 10 nM Cyclin B1/Cdk1, 2 nM FAM probe; average of 2-3 independent experiments; read-out: Cyclin B FP IC50. (In general: Polarisation of emitted light reports the rotation of a fluorescent probe.)

The target in the next test is T3, CyclinA2/CDK2 (Homo sapiens, UniProt P20248).
T3 construct: purchased CRELUX Protein Services
Put plainly: Fluorescence Polarization (FP) competitive binding assay, Cyclin A2/Cdk2.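 Note: plates equilibrated two hours at room temperature before polarization reading, IC50 fitted from eight-concentration compound titration curves.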 The note with it: 8 nM Cyclin A2/Cdk2, 2 nM FAM probe; average of 2-3 independent experiments; read-out: Cyclin A FP IC50.

The test system of the next test is NCI-H1048 cells. In words: MTT proliferation assay, NCI-H1048.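 Note: Dose-response in 96-well plates over 8 or 10 concentration points, with exposure spanning 3-4 cell doublings.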 The note with it: 5 days compound exposure, 1:3 serial dilution starting at 10 μM. Type of test: cell-based. For orientation: Tetrazolium assays rely on reduction of a dye to a coloured formazan, in cell work by metabolically active cells.
The test system of a further test is OVCAR3 cells. In words: MTT proliferation assay, OVCAR3.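 Note: compound given as an 8- or 10-point series, one day after plating, with exposure covering roughly 3-4 cell doublings.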 It is filed as cell-based. The note with it: 5 days compound exposure, 1:3 serial dilution starting at 10 μM.

Data on 13 molecules can be found in patent US20240408169A1 (priority 2023, published 2024).

*1 amine or outer side, *2 acyl side, *3 side chain or, on linkers, in order; H or OH if unused. Where a SMILES comes first, the peptide text is derived from it. Bridges are numbered along the chain shown (N, C = ends). [ ]: non-standard residue; d: D form. The star is where a group is joined. X127 = CN([C@@H](Cc1cc(F)ccc1-c1cnn(S(=O)(=O)C2CC2)c1)C(=O)[*:2])[*:1]; X142 = CN([C@@H](Cc1cc(Cl)ccc1C1=CCN(S(C)(=O)=O)CC1)C(=O)[*:2])[*:1]; NMehhhLys(Me) = CN([C@@H](CCCCCCCN(C)[*:3])C(=O)[*:2])[*:1]; X117 = Cc1cc(-c2ccc(F)cc2C[C@@H](C(=O)[*:2])N(C)[*:1])cnn1; X194 = CN([C@@H](Cc1cc(Cl)ccc1-c1ccnnc1)C(=O)[*:2])[*:1]; X176 = CN([C@@H](Cc1cc(F)ccc1-c1cccnc1)C(=O)[*:2])[*:1]; X204 = CN([C@@H](Cc1cc(F)ccc1-c1ccnnc1)C(=O)[*:2])[*:1]; NMe(hhhLys) = CN([C@@H](CCCCCCCN[*:3])C(=O)[*:2])[*:1]; NMe3Pal(2-OMe,5-Cl) = CN[C@@H](Cc1cc(Cl)cnc1OC)C(=O)O; Oxane2carbonyl(2R-CF3) = O=C([C@@]1(C(F)(F)F)CCCCO1)*; cBuCO(3,3-F2-1-CF3) = O=C(C1(C(F)(F)F)CC(F)(F)C1)*; Pro(trans-4-F) = O=C(O)[C@@H]1C[C@@H](F)CN1; Gly(cPr) = N[C@H](C(=O)O)C1CC1

As to `COc1ncc(Cl)cc1C[C@H]1C(=O)NCCCCCCC[C@H](N(C)C(=O)[C@@H](NC(=O)[C@@H]2C[C@@H](F)CN2C(=O)C2(C(F)(F)F)CC(F)(F)C2)C2CC2)C(=O)N[C@@H](CC(C)C)C(=O)N1C` [Example 275] ({cBuCO(3,3-F2-1-CF3)}-[Pro(trans-4-F)][Gly(cPr)][NMe(hhhLys)]L[NMe3Pal(2-OMe,5-Cl)]; lactam 3-C), the IC50 on CyclinE1/CDK2 was determined as 230 nM; at CyclinB1/CDK1 it was 20 nM; on CyclinA2/CDK2, 50 nM. The GI50 with NCI-H1048 cells and in the test on OVCAR3 cells was 10 nM throughout.
Regarding `CC(C)C[C@@H]1NC(=O)[C@@H](N(C)C(=O)[C@@H](NC(=O)[C@@H]2C[C@@H](F)CN2C(=O)C2(C(F)(F)F)CC(F)(F)C2)C2CC2)C/C=C\CCCCN(C)C(=O)[C@H](Cc2cc(F)ccc2-c2cnn(S(C)(=O)=O)c2)N(C)C1=O` [Example 278], the IC50 turned out to be 280 nM at CyclinE1/CDK2, 20 nM on CyclinB1/CDK1 and 70 nM on CyclinA2/CDK2. Also, the GI50 in the test with NCI-H1048 cells and in the test with OVCAR3 cells was 10 nM throughout.
Regarding `CC(C)C[C@@H]1NC(=O)[C@@H](N(C)C(=O)[C@@H](NC(=O)[C@@H]2C[C@@H](F)CN2C(=O)C2(C(F)(F)F)CC(F)(F)C2)C2CC2)CCCCCCCN(C)C(=O)[C@H](Cc2cc(F)ccc2-c2ccnnc2)N(C)C1=O` [Example 279] ({cBuCO(3,3-F2-1-CF3)}-[Pro(trans-4-F)][Gly(cPr)][NMehhhLys(Me)]L[X204]; lactam 3-C), the IC50 was determined as 1920 nM on CyclinE1/CDK2, 20 nM on CyclinB1/CDK1 and 100 nM on CyclinA2/CDK2. Besides, the GI50 in the test on NCI-H1048 cells was determined as 80 nM; in the test on OVCAR3 cells it was 90 nM.
On the same counts, the results for `CC(C)C[C@@H]1NC(=O)[C@@H](N(C)C(=O)[C@@H](NC(=O)[C@@H]2C[C@@H](F)CN2C(=O)C2(C(F)(F)F)CC(F)(F)C2)C2CC2)CCCCCCCNC(=O)[C@H](Cc2cc(F)ccc2-c2cccnc2)N(C)C1=O` [Example 280] ({cBuCO(3,3-F2-1-CF3)}-[Pro(trans-4-F)][Gly(cPr)][NMe(hhhLys)]L[X176]; lactam 3-C) are 320 nM, 20 nM, 40 nM, 10 nM and 10 nM.
On the same counts, the results for `CC(C)C[C@@H]1NC(=O)[C@@H](N(C)C(=O)[C@@H](NC(=O)[C@@H]2C[C@@H](F)CN2C(=O)C2(C(F)(F)F)CC(F)(F)C2)C2CC2)CCCCCCCNC(=O)[C@H](Cc2cc(F)ccc2-c2cnn(S(=O)(=O)C3CC3)c2)N(C)C1=O` [Example 281] ({cBuCO(3,3-F2-1-CF3)}-[Pro(trans-4-F)][Gly(cPr)][NMe(hhhLys)]L[X127]; lactam 3-C) are 530 nM, 20 nM, 40 nM, 10 nM and 20 nM.
On the same counts, the results for `CC(C)C[C@@H]1NC(=O)[C@@H](N(C)C(=O)[C@@H](NC(=O)[C@@H]2C[C@@H](F)CN2C(=O)[C@@]2(C(F)(F)F)CCCCO2)C2CC2)CCCCCCCN(C)C(=O)[C@H](Cc2cc(F)ccc2-c2cnn(S(=O)(=O)C3CC3)c2)N(C)C1=O` [Example 282] ({Oxane2carbonyl(2R-CF3)}-[Pro(trans-4-F)][Gly(cPr)][NMehhhLys(Me)]L[X127]; lactam 3-C) are 100 nM, 20 nM, 30 nM, 10 nM and 10 nM.
With `CC(C)C[C@@H]1NC(=O)[C@@H](N(C)C(=O)[C@@H](NC(=O)[C@@H]2C[C@@H](F)CN2C(=O)C2(C(F)(F)F)CC(F)(F)C2)C2CC2)CCCCCCCNC(=O)[C@H](Cc2cc(Cl)ccc2C2=CCN(S(C)(=O)=O)CC2)N(C)C1=O` [Example 284] ({cBuCO(3,3-F2-1-CF3)}-[Pro(trans-4-F)][Gly(cPr)][NMe(hhhLys)]L[X142]; lactam 3-C), the values for the IC50 at CyclinE1/CDK2, at CyclinB1/CDK1 and on CyclinA2/CDK2 were 1740 nM, 20 nM and 20 nM, respectively. Further, the GI50 in the test with NCI-H1048 cells and in the test on OVCAR3 cells was 10 nM each time.
Turning to `CC(C)C[C@@H]1NC(=O)[C@@H](N(C)C(=O)[C@@H](NC(=O)[C@@H]2C[C@@H](F)CN2C(=O)C2(C(F)(F)F)CC(F)(F)C2)C2CC2)CCCC=CCCNC(=O)[C@H](Cc2cc(Cl)ccc2-c2cnn(C)c2)N(C)C1=O` [Example 285], the IC50 amounted to 1700 nM on CyclinE1/CDK2, 20 nM at CyclinB1/CDK1 and 60 nM at CyclinA2/CDK2. The GI50 worked out at 50 nM in the test on NCI-H1048 cells and 30 nM with OVCAR3 cells.
As for `CC(C)C[C@@H]1NC(=O)[C@@H](N(C)C(=O)[C@@H](NC(=O)[C@@H]2C[C@@H](F)CN2C(=O)C2(C(F)(F)F)CC(F)(F)C2)C2CC2)CCCC=CCCNC(=O)[C@H](Cc2cc(Cl)ccc2-c2cnn(C3CC3)c2)N(C)C1=O` [Example 287], the IC50 on CyclinE1/CDK2 was determined as 1940 nM; at CyclinB1/CDK1 it was 20 nM; on CyclinA2/CDK2 it was 60 nM. Further, the GI50 with NCI-H1048 cells and in the test on OVCAR3 cells was 40 nM throughout.
As to `CC(C)C[C@@H]1NC(=O)[C@@H](N(C)C(=O)[C@@H](NC(=O)[C@@H]2C[C@@H](F)CN2C(=O)C2(C(F)(F)F)CC(F)(F)C2)C2CC2)CCCCCCCNC(=O)[C@H](Cc2cc(F)ccc2-c2ccnnc2)N(C)C1=O` [Example 290] ({cBuCO(3,3-F2-1-CF3)}-[Pro(trans-4-F)][Gly(cPr)][NMe(hhhLys)]L[X204]; lactam 3-C), the values for the IC50 on CyclinE1/CDK2, at CyclinB1/CDK1 and on CyclinA2/CDK2 were 1790 nM, 20 nM and 120 nM, respectively. Also, the GI50 in the test on NCI-H1048 cells was determined as 80 nM; with OVCAR3 cells it was 150 nM.
With `CC(C)C[C@@H]1NC(=O)[C@@H](N(C)C(=O)[C@@H](NC(=O)[C@@H]2C[C@@H](F)CN2C(=O)C2(C(F)(F)F)CC(F)(F)C2)C2CC2)CCCCCCCNC(=O)[C@H](Cc2cc(Cl)ccc2-c2ccnnc2)N(C)C1=O` [Example 291] ({cBuCO(3,3-F2-1-CF3)}-[Pro(trans-4-F)][Gly(cPr)][NMe(hhhLys)]L[X194]; lactam 3-C), the IC50 was determined as 5160 nM at CyclinE1/CDK2, 20 nM at CyclinB1/CDK1 and 70 nM at CyclinA2/CDK2. The concentration for 50% growth inhibition (GI50) in the test with NCI-H1048 cells was 120 nM; in the test on OVCAR3 cells, 150 nM.
With `CC(C)C[C@@H]1NC(=O)[C@@H](N(C)C(=O)[C@@H](NC(=O)[C@@H]2C[C@@H](F)CN2C(=O)C2(C(F)(F)F)CC(F)(F)C2)C2CC2)CCCCCCCN(C)C(=O)[C@H](Cc2cc(Cl)ccc2-c2ccnnc2)N(C)C1=O` [Example 292] ({cBuCO(3,3-F2-1-CF3)}-[Pro(trans-4-F)][Gly(cPr)][NMehhhLys(Me)]L[X194]; lactam 3-C), the values for the IC50 on CyclinE1/CDK2, at CyclinB1/CDK1 and at CyclinA2/CDK2 were 2880 nM, 20 nM and 60 nM, respectively. For the same molecule, the GI50 in the test with NCI-H1048 cells worked out at 70 nM; in the test on OVCAR3 cells, 110 nM.
On the same counts, the results for `Cc1cc(-c2ccc(F)cc2C[C@H]2C(=O)N(C)CCCCCCC[C@H](N(C)C(=O)[C@@H](NC(=O)[C@@H]3C[C@@H](F)CN3C(=O)C3(C(F)(F)F)CC(F)(F)C3)C3CC3)C(=O)N[C@@H](CC(C)C)C(=O)N2C)cnn1` [Example 293] ({cBuCO(3,3-F2-1-CF3)}-[Pro(trans-4-F)][Gly(cPr)][NMehhhLys(Me)]L[X117]; lactam 3-C) are 1990 nM, 20 nM, 100 nM, 50 nM and 90 nM.

A word on the IC50: it is the concentration at which inhibition is half-maximal. In general, GI50 refers to the concentration that inhibits growth by half. Low values mean greater sensitivity of the cells, high ones lower sensitivity of the cells.
